From article PMC9905601, “Archaeal DNA-import apparatus is homologous to bacterial conjugation machinery” (Nature Communications, 2023)

Biological target: T1, P. calidifontis protein Pcal_0765, TedC (Pyrobaculum calidifontis, UniProt A3MU74)
T1 sequence (A3MU74 23-153): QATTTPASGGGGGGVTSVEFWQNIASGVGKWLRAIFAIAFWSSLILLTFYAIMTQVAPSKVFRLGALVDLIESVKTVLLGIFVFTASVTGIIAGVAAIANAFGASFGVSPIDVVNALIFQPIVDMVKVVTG
Assay: cryo-EM structure of native pilus, […] Å
Assay type: binding

In the case of C[C@@H]1CCC[C@H](C)CCC[C@@H](C)CC[C@H](C)CCC[C@@H](C)CCC[C@H](C)CCC[C@H](C)CCOC[C@H](CO)OCC[C@H](C)CCC[C@H](C)CCC[C@H](C)CCC[C@@H](C)CC[C@H](C)CCC[C@@H](C)CCC[C@H](C)CCC[C@H](C)CCOC[C@H](CO)OCC[C@H](C)CCC1 [GDGT-0], the “cryo-EM structure of native pilus, 4.0 Å” value is reported as “we have modeled the simplest form, GDGT-0, into the cryo-EM density”.
